Data on four molecules can be found in US20030032587A1, “Urocortin peptides” (The Salk Institute for Biological Studies, priority 1995, published 2003).

In experiment [1] the target is CRF receptors on anterior pituitary cells in culture. The experiment can be described thus: cell-based or functional assay.
Experiment [2] deals with rats. The experiment can be described thus: fall in mean arterial blood pressure after peripheral (iv) administration. The format is in vivo.
Experiment [3] has as its target T1, murine CRF-R2β (Mus musculus, UniProt Q60748).
T1 construct: expressed in transfected cells
The experiment can be described thus: elevation of intracellular cAMP in cells expressing mCRF-R2β. The experiment is classed as cell-based. The conditions noted are these: read-out: ED50, elevation of cAMP. From the text:
CRF-R is used to refer to a family of receptor protein subtypes which participate in the G-protein-coupled response of cells to CRF and Ucn-like ligands. CRF-Rs are coupled by heterotrimeric G-proteins to various intracellular enzymes, ion channels, and transporters. The G-proteins associate with the receptor proteins at the intracellular face of the plasma membrane. An agonist binding to a CRF-R catalyzes the exchanges of GTP for GDP on the α-subunit (G-protein “activation”), resulting in its dissociation and stimulation of one (or more) of the various signal-transducing enzymes and channels. G-protein preferentially stimulates particular effectors, and the specificity of signal transduction may be determined, therefore, by the specificity of G-protein/receptor interaction. CRF-R proteins mediate signal transduction through the modulation of adenylate cyclase and perhaps through PI turnover. For example, when CRF or Ucn binds to and activates the CRF-R, adenylate cyclase causes an elevation in the level of intracellular cAMP. […] Such transformed cells are monitored for either an increase or decrease in the level of intracellular CAMP which provides a determination of the effectiveness of the potential agonist or antagonist. Methods for measuring intracellular levels of cAMP, or measuring cyclase activity, are well known in the art.

Experiment [4] deals with human CRF-R2β. The experiment can be described thus: competitive displacement binding assay, CRF-R2β stably expressed in CHO cells. Particulars: read-out: Ki (95% confidence limits); CRF-R2β in stably transfected CHO cells; displacement of [125I-Tyr0]Ucn. The procedure:
Binding assays with cells expressing human CRF-R1 are carried out as described in the Chen et al. P.N.A.S., supra. The affinities of test peptides for CRF-R1 and CRF-R2β stably expressed in CHO cells were determined by competitive displacement of ^125I-(Nle^21, Tyr^32) ovine CRF (for CRF-R1) or of [^125II-Tyr^∘]Ucn (for CRF-R2β) as described.
For orientation: Loss of bound radioactivity is the signal in a displacement assay; it reports binding, not function.

Experiment [5] concerns the target T2, human CRF binding protein (hCRF-BP) (Homo sapiens, UniProt P24387).
T2 construct: made in house; host or cells: recombinant CHO cells, conditioned medium
T2 sequence (P24387 25-322): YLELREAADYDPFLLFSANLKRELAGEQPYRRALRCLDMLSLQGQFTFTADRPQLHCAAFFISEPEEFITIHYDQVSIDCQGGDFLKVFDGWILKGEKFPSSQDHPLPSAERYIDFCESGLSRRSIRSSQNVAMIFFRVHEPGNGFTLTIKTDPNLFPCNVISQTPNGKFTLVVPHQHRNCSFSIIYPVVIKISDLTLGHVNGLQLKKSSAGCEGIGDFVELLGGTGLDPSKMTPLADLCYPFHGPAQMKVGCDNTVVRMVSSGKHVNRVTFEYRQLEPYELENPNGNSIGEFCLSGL
The experiment can be described thus: competitive hCRF-BP ligand binding assay. Particulars: radioligand 125I[Nle21,Tyr32]-oCRF.

Experiment [6] relates to rats. The experiment can be described thus: ACTH secretion in vivo, ACTH level in plasma.
The test system of experiment [7] is primary murine anterior pituitary cells. The experiment is classed as cell-based. The text has this:
A straightforward assay using rat anterior pituitary cells in monolayer culture can be carried out to determine whether a candidate peptide thereof will function as a CRF agonist and stimulate ACTH secretion by activating CRF receptors on such cells. The procedure which is used is that generally set forth in Endocrinology, 91, supra. A very similar assay is used to test for antagonistic properties, using a challenge dose of oCRF or the like.
To test the ability of purified Ucn or another candidate Ucn-like peptide to function as a CRF agonist and to promote ACTH production and/or secretion, cultures of dispersed primary murine anterior pituitary cells (0.15×10^6 cells/well are used), as generally described in Vale et al. Meth. Enzym., 103, 565-577 (1983), and in Endocrinology, 91, 562 (1972). These cultures are maintained in 0.5 ml/well of β-PJ (a reagent available from Kansas City Biochemicals) containing 2% fetal bovine serum. On the morning of culture day 5, the cells are washed 3 times with β-PJ containing 0.1% bovine serum albumin and then incubated for 1 hour at 37° C. in the same medium. The medium is then replaced with Ucn, or an analog thereof, diluted in β-PJ containing 0.1% bovine serum albumin. Incubations are terminated after 3 hours, at which time the medium is removed and stored at −20° C. until ACTH radioimmunoassays are performed using a suitable kit, such as that commercially available from Diagnostic Products Corporation of Los Angeles, Calif. Secreted ACTH is measured using Allfit computer program with results expressed as the average±s.e.m. of 3 replicate bioassays.

Experiment [8] concerns the target T3, human CRF binding protein (human, UniProt P24387 25-322).
T3 construct: also called hCRF-BP; CRF-BP
T3 sequence (looked up): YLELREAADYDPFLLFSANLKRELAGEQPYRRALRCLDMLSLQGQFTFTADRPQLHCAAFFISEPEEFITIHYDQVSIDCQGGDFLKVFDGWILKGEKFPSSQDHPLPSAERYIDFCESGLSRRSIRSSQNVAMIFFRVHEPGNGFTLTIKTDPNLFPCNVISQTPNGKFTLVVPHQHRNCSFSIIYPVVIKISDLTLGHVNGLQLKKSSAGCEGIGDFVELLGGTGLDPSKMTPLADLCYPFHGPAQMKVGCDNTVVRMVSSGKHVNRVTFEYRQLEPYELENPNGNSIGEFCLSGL
The experiment can be described thus: competitive hCRF-BP ligand binding assay with 125I[Nle21,Tyr32]-oCRF.

For experiment [9], the target named is human CRF-R2β, stably transfected CHO cells (human) (UniProt Q13324). The experiment can be described thus: competitive displacement of [125I-Tyr0]Ucn from stably transfected CHO cells expressing human CRF-R2β; 95% confidence limits in brackets.
In experiment [10] the target is T4, human CRF-R1 (cloned hCRF-R1), stably expressed in CHO cells (human, UniProt P34998 24-415).
T4 construct: whole, on cells; also called hCRF-RA
T4 sequence (looked up): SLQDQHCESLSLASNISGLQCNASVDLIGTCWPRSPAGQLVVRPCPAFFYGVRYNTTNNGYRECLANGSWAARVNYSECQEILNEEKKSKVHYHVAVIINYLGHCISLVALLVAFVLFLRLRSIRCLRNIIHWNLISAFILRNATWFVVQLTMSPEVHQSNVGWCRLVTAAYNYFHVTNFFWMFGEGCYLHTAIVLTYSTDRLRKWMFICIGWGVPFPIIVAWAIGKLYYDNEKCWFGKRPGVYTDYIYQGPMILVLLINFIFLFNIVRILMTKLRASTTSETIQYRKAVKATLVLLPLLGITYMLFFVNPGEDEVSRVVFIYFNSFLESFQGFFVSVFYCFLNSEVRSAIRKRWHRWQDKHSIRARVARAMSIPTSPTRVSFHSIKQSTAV
Briefly: competitive displacement of 125I-(Nle21,Tyr32) ovine CRF from CHO cells stably expressing hCRF-R1; LIGAND program, 95% confidence limits in brackets. The procedure:
Binding assays with cells expressing human CRF-R1 are carried out as described in the Chen et al. P.N.A.S., supra.

For experiment [11], the target named is T3, human CRF binding protein. The experiment can be described thus: competitive hCRF-BP ligand binding assay with [125I-DTyr0]hCRF; reference peptide. The procedure:
After incubating with the primary and secondary antisera for 30 minutes each, 1 ml of saline wash is added, and the test tubes are centrifuged at 2000× g for 20 minutes at 4° C. Precipitates are counted in a gamma counter. Inhibitory binding affinity constant (Kᵢ) values are determined using parameters calculated by the LIGAND computer program, Munson et al., Anal. Biochem., 107, 220 (1980), and a Vax/VMS computer system.

Where no end group is shown, it is not given here.

T1 sequence (Q60748 1-431 isoform Q60748-2): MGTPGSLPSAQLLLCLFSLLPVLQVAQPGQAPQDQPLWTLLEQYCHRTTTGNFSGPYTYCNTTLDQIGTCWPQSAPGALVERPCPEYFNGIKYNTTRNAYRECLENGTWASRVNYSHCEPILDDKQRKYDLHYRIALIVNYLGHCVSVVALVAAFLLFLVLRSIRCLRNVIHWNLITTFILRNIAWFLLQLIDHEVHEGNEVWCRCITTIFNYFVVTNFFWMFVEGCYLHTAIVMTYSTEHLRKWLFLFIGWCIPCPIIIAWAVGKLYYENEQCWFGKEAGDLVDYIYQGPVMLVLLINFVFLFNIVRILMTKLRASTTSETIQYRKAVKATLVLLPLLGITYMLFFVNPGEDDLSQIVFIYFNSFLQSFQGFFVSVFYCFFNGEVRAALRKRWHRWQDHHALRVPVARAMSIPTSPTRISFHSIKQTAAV

In experiment [1], [Tyr0]rUcn(1-40) (peptide) displayed an ACTH secretion, anterior pituitary cell cultures, potency relative to r/hCRF of 2.2 times r/hCRF.

By Ki is commonly meant the dissociation constant of the complex between target and ligand, obtained from inhibition or displacement. For the molecule `CC[C@H](C)[C@H](NC(=O)[C@H](CO)NC(=O)[C@H](CC(C)C)NC(=O)[C@@H]1CCCN1C(=O)[C@@H]1CCCN1C(=O)[C@H](CC(=O)O)NC(=O)[C@@H](N)CC(=O)O)C(=O)N[C@@H](CC(=O)O)C(=O)N[C@@H](CC(C)C)C(=O)N[C@H](C(=O)N[C@@H](Cc1ccccc1)C(=O)N[C@@H](Cc1c[nH]cn1)C(=O)N[C@@H](CC(C)C)C(=O)N[C@@H](CC(C)C)C(=O)N[C@@H](CCCNC(=N)N)C(=O)N[C@H](C(=O)N[C@@H](CC(C)C)C(=O)N[C@@H](CC(C)C)C(=O)N[C@@H](CCC(=O)O)C(=O)N[C@@H](CC(C)C)C(=O)N[C@@H](C)C(=O)N[C@@H](CCCNC(=N)N)C(=O)N[C@H](C(=O)N[C@@H](CCC(N)=O)C(=O)N[C@@H](CO)C(=O)N[C@@H](CCC(N)=O)C(=O)N[C@@H](CCCNC(=N)N)C(=O)N[C@@H](CCC(=O)O)C(=O)N[C@@H](CCCNC(=N)N)C(=O)N[C@@H](C)C(=O)N[C@@H](CCC(=O)O)C(=O)N[C@@H](CCC(N)=O)C(=O)N[C@@H](CC(N)=O)C(=O)N[C@@H](CCCNC(=N)N)C(=O)N[C@H](C(=O)N[C@H](C(=O)N[C@@H](Cc1ccccc1)C(=O)N[C@@H](CC(=O)O)C(=O)N[C@@H](CO)C(=O)N[C@H](C(N)=O)C(C)C)[C@@H](C)CC)[C@@H](C)CC)[C@@H](C)O)[C@@H](C)O)[C@@H](C)O` [rUcn], the “fall in mean arterial blood pressure” value in experiment [2] (administered peripherally, e.g. iv, dose as low as 250 ng for a rat of about 250 to 275 grams) is on record as “marked fall”. For the same molecule, the “lowers blood pressure, times as much as either sfUI or r/hCRF” value in [2] (dose of about 3.77 μg/kg) is listed as 2-3 times. In experiment [3], the EC50 was 0.18 ± 0.04 nM. Moreover, in experiment [4], the Ki turned out to be 0.41 nM. In experiment [5], the “binding to hCRF-BP compared with sauvagine and sfUI” value is “much more strongly than does sauvagine, but less strongly than sfUI”; the “binds hCRF-BP more strongly than r/hCRF, factor” value is reported as “about 2”. Further, the “ACTH level in plasma” value in experiment [6] (1 μg/kg dose, at 30 minutes) came to 659 ± 53 pg/mL. The “ACTH level in plasma, effect compared with r/hCRF” value in experiment [6] (at 1 hour and at 2 hours) was “greater effect continues”. Also, in [7] (cultured rodent pituitary cells), the “biopotency for ACTH secretion compared with oCRF” value is “more potent than oCRF”. Besides, the “stimulates the secretion of ACTH and β-END-LI (β-endorphin)” value in experiment [7] (result in words) is listed as “strongly stimulates”.

Consider NDDPPISIDLTFHLLRNMIEMARIENEREQAGLNRKYLDEV-NH2 (also called sfUI; suckerfishUI) [suckerfish urotensin I], for which, in [8], the binding result is recorded as “binds”. For the same molecule, the results for the Ki in experiment [9] and in experiment [10] were 3 nM and about 0.43 nM, respectively.

For DLTFHLLREVLEMARAEQLAQQAHS [hCRF(9-33)], the binding result in experiment [11] is recorded as “binds”.
